Measurements: patent publication US20210290624A1, “METHODS OF TREATING CANCERS CHARACTERIZED BY A HIGH EXPRESSION LEVEL OF SPINDLE AND KINETOCHORE ASSOCIATED COMPLEX SUBUNIT 3 (SKA3) GENE” (UNIVERSITY HEALTH NETWORK, priority 2018, published 2021)

System: breast cancer cell lines
Experiment: sulforhodamine B (SRB) drug sensitivity assay in breast cancer cell line panel
Type: cell-based
Settings: panel of 52 breast cancer cell lines, 5 days of treatment, FIG. 1
Excerpt: A breast cancer cell line panel, previously described (Marcotte et al., Cell, 164(1-2), 2016293-309), was assembled for in vitro drug sensitivity profiling, and mated with available gene expression data. The RNA-seq reads were aligned to the Ensembl Genome Reference Consortium release GRCh38 using Kallisto pipeline (Bray et al., Nature Biotechnology, 201634(5), 525-527). Expression values were computed as log2(TPM+0.001), where TPM represents the number of transcripts per million mapped reads units which control for sequence length and sequencing depth. The status of SKA3 expression (high vs low expression) can be determined from a reference population such as the breast cancer TCGA cohort (see FIG. 6).
Response of breast cancer cell lines to compound CFI-402257 (a TTK inhibitor, see the structure below) was evaluated using sulforhodamine B (SRB) assays. The compound was synthesized as previously described (See Liu et al., ACS Medicinal Chemistry Letters, 20167(7), 671-675).
Cells were seeded in 96-well plates and treated with serial drug dilutions. After 5 days of treatment, cells were fixed, stained with SRB, solubilized, and absorbance quantified on a spectrophotometer. For all drug response assays, cell viabilities are reported as the proportion of growth in drug relative to DMSO treated conditions. […]

## Cc1cc(-c2cnn3c(NC[C@H]4C[C@@](C)(O)C4)cc(Oc4cccnc4)nc23)ccc1C(=O)NC1CC1 [CFI-402257]
  in vitro sensitivity (area above the drug dose-response curve, AAC): Differential in vitro sensitivity
